In ChEMBL document CHEMBL1144965, “A series of 2(Z)-2-benzylidene-6,7-dihydroxybenzofuran-3[2H]-ones as inhibitors of chorismate synthase” (Bioorg Med Chem Lett, 2003):

T1: Chorismate synthase (Streptococcus pneumoniae serotype 4 (strain ATCC BAA-334 / TIGR4), UniProt P0A2Y6)
T1 sequence (P0A2Y6 whole entry): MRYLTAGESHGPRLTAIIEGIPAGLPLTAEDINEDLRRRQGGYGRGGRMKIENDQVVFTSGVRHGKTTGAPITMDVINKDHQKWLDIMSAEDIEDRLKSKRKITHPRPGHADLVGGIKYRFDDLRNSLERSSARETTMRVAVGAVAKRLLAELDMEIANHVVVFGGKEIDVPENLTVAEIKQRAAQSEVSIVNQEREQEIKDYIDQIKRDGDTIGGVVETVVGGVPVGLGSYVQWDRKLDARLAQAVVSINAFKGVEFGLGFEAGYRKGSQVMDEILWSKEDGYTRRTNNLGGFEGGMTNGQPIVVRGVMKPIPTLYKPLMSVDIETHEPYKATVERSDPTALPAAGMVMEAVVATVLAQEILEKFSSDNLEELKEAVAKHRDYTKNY


Legend:
Chorismate synthase [1] = target: T1, Chorismate synthase; test: Inhibitory concentration against Streptococcus pneumoniae chorismate synthase
[2] = (§1) Non-competitive inhibitory activity with respect to cofactor FMN
Chorismate synthase [3] = target: T1, Chorismate synthase; test: Inhibitory concentration against Streptococcus pneumoniae chorismate synthase; Not active
[4] = as §1; remark: listed apart in the source
[5] = target: Chorismate synthase (Streptococcus pneumoniae); test: Competitive inhibitory activity with respect to EPSP (5-enolpyruvyl-shikimate- 3-phosphate) at chorismate synthase
[6] = substrate: CCN(CC)c1ccc(/C=C2/Oc3c(ccc(O)c3O)C2=O)cc1
Description: Michaelis-Menten constant for EPSP (5-enolpyruvyl-shikimate- 3-phosphate) synthase was evaluated

Row | Molecule | IC50 (Chorismate synthase [1]) [µM] | other results
1 | CCN(CC)c1ccc(/C=C2/Oc3c(ccc(O)c3O)C2=O)cc1 |  | Ki [2]: 1.7 µM
2 | O=C1/C(=C\c2ccc(F)cc2)Oc2c1ccc(O)c2O | > 60 | 
3 | O=C1/C(=C\c2ccc(N3CCOCC3)cc2)Oc2c1ccc(O)c2O | > 50 | 
4 | O=C1/C(=C\c2ccccc2O)Oc2c1ccc(O)c2O | 0.8 | 
5 | O=C1/C(=C\c2ccccc2[N+](=O)[O-])Oc2c1ccc(O)c2O | 2 | 
6 | COc1ccc(/C=C2/Oc3c(ccc(O)c3O)C2=O)cc1 | 14.3 | 
7 | O=C1/C(=C\c2ccc(OCCCCCCO)cc2O)Oc2c1ccc(O)c2O | 1.6 | 
8 | O=C(O)COc1ccccc1/C=C1/Oc2c(ccc(O)c2O)C1=O | 1.8 | 
9 | O=C1/C(=C\c2ccc(N3CCCC3)cc2)Oc2c1ccc(O)c2O | 5.5 | 
10 | CN(C)c1ccc(/C=C2/Oc3c(ccc(O)c3O)C2=O)cc1 | 25.9 | 
11 | O=C1/C(=C\c2ccccc2)Oc2c1ccc(O)c2O | 3.5 | 
12 | O=C1/C(=C\c2ccc(C(F)(F)F)cc2)Oc2c1ccc(O)c2O | 7 | 
13 | Cc1ccc(/C=C2/Oc3c(ccc(O)c3O)C2=O)cc1 |  | IC50 (Chorismate synthase [3]): Not Active
14 | O=C(O)c1ccc(/C=C2/Oc3c(ccc(O)c3O)C2=O)cc1 | 24 | 
15 | N#Cc1ccc(/C=C2/Oc3c(ccc(O)c3O)C2=O)cc1 |  | IC50 (Chorismate synthase [3]): Not Active
16 | N#CCCCOc1ccc(/C=C2/Oc3c(ccc(O)c3O)C2=O)c(O)c1 | 1.1 | 

Row | Molecule | IC50 (Chorismate synthase [1]) [µM] | other results
17 | O=C1/C(=C\c2ccc(OCCCCO)cc2O)Oc2c1ccc(O)c2O | 0.86 | 
18 | O=C1/C(=C\c2ccccc2Cl)Oc2c1ccc(O)c2O | 5.2 | 
19 | O=C1/C(=C\c2ccc(-n3ccnc3)cc2)Oc2c1ccc(O)c2O | 5.1 | 
20 | O=C(O)c1ccccc1/C=C1/Oc2c(ccc(O)c2O)C1=O | 10.7 | 
21 | O=C1/C(=C\c2ccc(OCc3ccccc3)cc2O)Oc2c1ccc(O)c2O | 1 | 
22 | CCCCOc1ccc(/C=C2/Oc3c(ccc(O)c3O)C2=O)c(O)c1 | 0.45 | 
23 | O=C(O)CCCOc1ccc(/C=C2/Oc3c(ccc(O)c3O)C2=O)c(O)c1 | 1.1 | 
24 | CC(C)COc1ccc(/C=C2/Oc3c(ccc(O)c3O)C2=O)c(O)c1 | 0.58 | 
25 | O=C1/C(=C\c2ccc([N+](=O)[O-])cc2)Oc2c1ccc(O)c2O | 4.8 | 
26 | CCOC(=O)COc1ccc(/C=C2/Oc3c(ccc(O)c3O)C2=O)c(O)c1 | 10.3 | 
27 | CCN(CCO)c1ccc(/C=C2/Oc3c(ccc(O)c3O)C2=O)c(C)c1 | 3.4 | 
28 | COc1ccccc1/C=C1/Oc2c(ccc(O)c2O)C1=O | > 60 | 
29 | CCOc1ccc(/C=C2/Oc3c(ccc(O)c3O)C2=O)cc1 | 5.8 | 
30 | O=C1/C(=C\c2ccc(O)cc2)Oc2c1ccc(O)c2O | 15 | 
31 | 3-phosphoshikimate 1-carboxyvinyltransferase (Escherichia coli K-12), P0A6D3 (protein) MESLTLQPIARVDGTINLPGSKSVSNRALLLAALAHGKTVLTNLLDSDDVRHMLNALTALGVSYTLSADRTRCEIIGNGGPLHAEGALELFLGNAGTAMRPLAAALCLGSNDIVLTGEPRMKERPIGHLVDALRLGGAKITYLEQENYPPLRLQGGFTGGNVDVDGSVSSQFLTALLMTAPLAPEDTVIRIKGDLVSKPYIDITLNLMKTFGVEIENQHYQQFVVKGGQSYQSPGTYLVEGDASSASYFLAAAAIKGGTVKVTGIGRNSMQGDIRFADVLEKMGATICWGDDYISCTRGELNAIDMDMNHIPDAAMTIATAALFAKGTTTLRNIYNWRVKETDRLFAMATELRKVGAEVEEGHDYIRITPPEKLNFAEIATYNDHRMAMCFSLVALSDTPVTILDPKCTAKTFPDYFEQLARISQAA |  | Km [6]: 30 µM

The next lines start with results.

Row | IC50 (Chorismate synthase [1]) [µM] | Molecule | other results
32 | 17.3 | O=C1/C(=C\c2ccccc2C(F)(F)F)Oc2c1ccc(O)c2O | 
33 | 1 | CC(C)Oc1ccc(/C=C2/Oc3c(ccc(O)c3O)C2=O)c(O)c1 | 
34 | 0.32 | CCCCCCOc1ccc(/C=C2/Oc3c(ccc(O)c3O)C2=O)c(O)c1 | 
35 | 0.51 | CCCOc1ccc(/C=C2/Oc3c(ccc(O)c3O)C2=O)c(O)c1 | 
36 | 4 | Cc1ccccc1/C=C1/Oc2c(ccc(O)c2O)C1=O | 
37 | 1.7 | COc1cccc(/C=C2/Oc3c(ccc(O)c3O)C2=O)c1O | 
38 | 5 | CCN(CC)c1ccc(/C=C2/Oc3c(ccc(O)c3O)C2=O)c(O)c1 | 
39 | 0.22 | CCCCCOc1ccc(/C=C2/Oc3c(ccc(O)c3O)C2=O)c(O)c1 | 
40 | 2.5 | O=C1/C(=C\c2ccc(OCCCO)cc2O)Oc2c1ccc(O)c2O | 
41 | 2.6 | O=C(O)COc1ccc(/C=C2/Oc3c(ccc(O)c3O)C2=O)c(O)c1 | 
42 | 0.65 | CCOC(=O)CCCOc1ccc(/C=C2/Oc3c(ccc(O)c3O)C2=O)c(O)c1 | 
43 | 1.5 | CCCCOc1ccc(/C=C2/Oc3c(ccc(O)c3O)C2=O)cc1 | 
44 | 0.7 | COc1ccc(/C=C2/Oc3c(ccc(O)c3O)C2=O)c(O)c1 | Ki [4]: 1.4 µM; Ki [5]: 0.1 µM
